Measured values taken from patent US20100298141A1, “SUBSTITUTED PYRIDINE N-OXIDE HERBICIDES” (E. I. DU PONT DE NEMOURS AND COMPANY, priority 2007, published 2010).

What was measured:
Assay in all cases: Test F preemergence test
Virginia dayflower = assay type: in vivo, Commelina virginica; settings: 16 g ai/ha, preemergence; scale 0 to 100
Method in brief: (§1)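 Test chemicals in a non-phytotoxic solvent mixture containing a surfactant were applied preemergence to sown seeds or postemergence to sugarcane plants. Treated plants and controls were held in a greenhouse for 14 to 21 days, then visually evaluated against controls.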

itchgrass = assay type: in vivo, Rottboellia cochinchinensis; settings: scale 0 to 100
Method in brief: as §1

common ragweed = assay type: in vivo, Ambrosia elation; settings: scale 0 to 100
Method in brief: as §1

guineagrass = assay type: in vivo, Panicum maximum; settings: scale 0 to 100
Method in brief: as §1

broadleaf signalgrass = assay type: in vivo, Brachiaria platyphylla; settings: scale 0 to 100
Method in brief: as §1

naked crabgrass = assay type: in vivo, Digitaria nuda; settings: scale 0 to 100
Method in brief: as §1

pitted morningglory = assay type: in vivo, Ipomoea lacunosa; settings: scale 0 to 100
Method in brief: as §1

Surinam grass = assay type: in vivo, Brachiaria decumbens; settings: scale 0 to 100
Method in brief: as §1

quackgrass = assay type: in vivo, Elytrigia repens; settings: scale 0 to 100
Method in brief: as §1

common groundsel = assay type: in vivo, Senecio vulgaris; settings: scale 0 to 100
Method in brief: as §1

goosegrass = assay type: in vivo, Eleusine indica; settings: scale 0 to 100
Method in brief: as §1

barnyardgrass = assay type: in vivo, Echinochloa crus-galli
Method in brief: as §1

mustard = assay type: in vivo, Brassica nigra; settings: scale 0 to 100
Method in brief: as §1

common purslane = assay type: in vivo, Portulaca oleracea; settings: scale 0 to 100
Method in brief: as §1

prickly sida = assay type: in vivo, Sida spinosa; settings: scale 0 to 100
Method in brief: as §1

dallisgrass = assay type: in vivo, Paspalum dilatatum; settings: scale 0 to 100
Method in brief: as §1

kochia = assay type: in vivo, Kochia scoparia; settings: scale 0 to 100
Method in brief: as §1

large crabgrass = assay type: in vivo, Digitaria sanguinalis; settings: scale 0 to 100
Method in brief: as §1

Italian ryegrass = assay type: in vivo, Lolium multiflorum; settings: scale 0 to 100
Method in brief: as §1

bermudagrass = assay type: in vivo, Cynodon dactylon; settings: scale 0 to 100
Method in brief: as §1

johnsongrass = assay type: in vivo, Sorghum halepense; settings: scale 0 to 100
Method in brief: as §1

Cn1nc(C(F)(F)F)c(C[S+]([O-])c2ccc(F)c[n+]2[O-])c1OCC(F)(F)F (stereo not drawn) [Compound 67]
Plant response rating, Dayflower (Virginia dayflower): 50
Plant response rating, Itchgrass (itchgrass; 16 g ai/ha, preemergence): 15
Itchgrass plant response rating (itchgrass; 62 g ai/ha, Preemergence): 65
Itchgrass plant response rating (itchgrass; 125 g ai/ha, preemergence): 100
Plant response rating, Itchgrass (itchgrass; Preemergence, 31 g ai/ha): 25
Plant response rating, Ragweed (common ragweed; 16 g ai/ha, preemergence): 20
Ragweed plant response rating (common ragweed; 125 g ai/ha, preemergence): 98
Plant response rating, Ragweed (common ragweed; Preemergence, 62 g ai/ha): 90
Plant response rating, Ragweed (common ragweed; Preemergence, 31 g ai/ha): 65
Plant response rating, Guineagrass (guineagrass; 16 g ai/ha, preemergence): 0
Guineagrass plant response rating (guineagrass; 62 g ai/ha, Preemergence): 100
Guineagrass plant response rating (guineagrass; 125 g ai/ha, preemergence): 100
Plant response rating, Guineagrass (guineagrass; Preemergence, 31 g ai/ha): 95
Plant response rating, Signalgrass (broadleaf signalgrass; 16 g ai/ha, preemergence): 0
Signalgrass plant response rating (broadleaf signalgrass; 125 g ai/ha, preemergence): 98
Plant response rating, Signalgrass (broadleaf signalgrass; Preemergence, 62 g ai/ha): 90
Plant response rating, Signalgrass (broadleaf signalgrass; Preemergence, 31 g ai/ha): 30
Plant response rating, Crabgrass, Naked (naked crabgrass; 16 g ai/ha, preemergence): 60
Crabgrass, Naked plant response rating (naked crabgrass; 62 g ai/ha, Preemergence): 100
Crabgrass, Naked plant response rating (naked crabgrass; 125 g ai/ha, preemergence): 100
Plant response rating, Crabgrass, Naked (naked crabgrass; Preemergence, 31 g ai/ha): 70
Plant response rating, Morningglory (pitted morningglory; 16 g ai/ha, preemergence): 40
Morningglory plant response rating (pitted morningglory; 62 g ai/ha, Preemergence): 70
Morningglory plant response rating (pitted morningglory; 125 g ai/ha, preemergence): 90
Plant response rating, Morningglory (pitted morningglory; Preemergence, 31 g ai/ha): 70
Plant response rating, Surinam Grass (Surinam grass; 16 g ai/ha, preemergence): 75
Surinam Grass plant response rating (Surinam grass; 125 g ai/ha, preemergence): 100
Plant response rating, Surinam Grass (Surinam grass; Preemergence, 62 g ai/ha): 100
Plant response rating, Surinam Grass (Surinam grass; Preemergence, 31 g ai/ha): 95
Plant response rating, Quackgrass (quackgrass; 16 g ai/ha, preemergence): 60
Quackgrass plant response rating (quackgrass; 62 g ai/ha, Preemergence): 85
Quackgrass plant response rating (quackgrass; 125 g ai/ha, preemergence): 98
Plant response rating, Quackgrass (quackgrass; Preemergence, 31 g ai/ha): 75
Plant response rating, Groundsel (common groundsel; 16 g ai/ha, preemergence): 0
Groundsel plant response rating (common groundsel; 62 g ai/ha, Preemergence): 80
Groundsel plant response rating (common groundsel; 125 g ai/ha, preemergence): 98
Plant response rating, Groundsel (common groundsel; Preemergence, 31 g ai/ha): 25
Plant response rating, Goosegrass (goosegrass; 16 g ai/ha, preemergence): 50
Goosegrass plant response rating (goosegrass; 62 g ai/ha, Preemergence): 80
Goosegrass plant response rating (goosegrass; 125 g ai/ha, preemergence): 100
Plant response rating, Goosegrass (goosegrass; Preemergence, 31 g ai/ha): 70
Plant response rating, Barnyardgrass (barnyardgrass; 16 g ai/ha, preemergence, scale 0 to 100 (0 no effect, 100 complete control)): 75
Barnyardgrass plant response rating (barnyardgrass; 62 g ai/ha, Preemergence, scale 0 to 100): 100
Barnyardgrass plant response rating (barnyardgrass; 125 g ai/ha, preemergence, scale 0 to 100): 100
Plant response rating, Barnyardgrass (barnyardgrass; Preemergence, 31 g ai/ha, scale 0 to 100): 90
Plant response rating, Black Mustard (mustard; 16 g ai/ha, preemergence): 0
Black Mustard plant response rating (mustard; 62 g ai/ha, Preemergence): 100
Black Mustard plant response rating (mustard; 125 g ai/ha, preemergence): 100
Plant response rating, Black Mustard (mustard; Preemergence, 31 g ai/ha): 75
Plant response rating, Purslane (common purslane; 16 g ai/ha, preemergence): 0
Purslane plant response rating (common purslane; 62 g ai/ha, Preemergence): 95
Purslane plant response rating (common purslane; 125 g ai/ha, preemergence): 100
Plant response rating, Purslane (common purslane; Preemergence, 31 g ai/ha): 0
Plant response rating, Prickly Sida (prickly sida; 16 g ai/ha, preemergence): 0
Prickly Sida plant response rating (prickly sida; 62 g ai/ha, Preemergence): 90
Prickly Sida plant response rating (prickly sida; 125 g ai/ha, preemergence): 98
Plant response rating, Prickly Sida (prickly sida; Preemergence, 31 g ai/ha): 65
Plant response rating, Dallisgrass (dallisgrass; 16 g ai/ha, preemergence): 0
Dallisgrass plant response rating (dallisgrass; 62 g ai/ha, Preemergence): 95
Dallisgrass plant response rating (dallisgrass; 125 g ai/ha, preemergence): 100
Plant response rating, Dallisgrass (dallisgrass; Preemergence, 31 g ai/ha): 40
Plant response rating, Kochia (kochia; 16 g ai/ha, preemergence): 0
Kochia plant response rating (kochia; 62 g ai/ha, Preemergence): 100
Kochia plant response rating (kochia; 125 g ai/ha, preemergence): 100
Plant response rating, Kochia (kochia; Preemergence, 31 g ai/ha): 60
Plant response rating, Crabgrass, Large (large crabgrass; 16 g ai/ha, preemergence): 65
Crabgrass, Large plant response rating (large crabgrass; 62 g ai/ha, Preemergence): 98
Crabgrass, Large plant response rating (large crabgrass; 125 g ai/ha, preemergence): 100
Plant response rating, Crabgrass, Large (large crabgrass; Preemergence, 31 g ai/ha): 98
Plant response rating, Ryegrass, Italian (Italian ryegrass; 16 g ai/ha, preemergence): 40
Ryegrass, Italian plant response rating (Italian ryegrass; 125 g ai/ha, preemergence): 100
Plant response rating, Ryegrass, Italian (Italian ryegrass; Preemergence, 62 g ai/ha): 100
Plant response rating, Ryegrass, Italian (Italian ryegrass; Preemergence, 31 g ai/ha): 75
Plant response rating, Bermudagrass (bermudagrass; 16 g ai/ha, preemergence): 20
Bermudagrass plant response rating (bermudagrass; 62 g ai/ha, Preemergence): 98
Bermudagrass plant response rating (bermudagrass; 125 g ai/ha, preemergence): 100
Plant response rating, Bermudagrass (bermudagrass; Preemergence, 31 g ai/ha): 75
Plant response rating, Johnsongrass (johnsongrass; 16 g ai/ha, preemergence): 35
Johnsongrass plant response rating (johnsongrass; 62 g ai/ha, Preemergence): 75
Johnsongrass plant response rating (johnsongrass; 125 g ai/ha, preemergence): 95
Plant response rating, Johnsongrass (johnsongrass; Preemergence, 31 g ai/ha): 75
